From patent US20090117123A1, “IMMU[…] HPV E6 AND E7 PROTEINS” (National Health Research Institutes, priority 2007, published 2009)

What was measured:
[1] = tested on: ^51Cr-labeled T2/HLA-A11 cells; test: Chromium release assay with splenocytes from peptide-immunized mice; type: in vivo, mouse; conditions: HLA-A11 transgenic mice immunized twice with the peptide; FIG. 6B
Method: (§1) Next, the CTL effect induced by peptide VVY was examined as follows. HLA-A11 transgenic mice were immunized twice with peptide VVY, SIP, or ATL, all of which were derived from HPV 18, following the procedures described above in this Example. Splenocytes (2×10^6/ml) isolated from the immunized mice were cultured with 10 μg/ml of either VVY or A11-SCC and 10 U/ml rIL-2 for at 37+ C. for 5 days. A standard chromium release assay was performed to determine cytolytic activity. In brief, T2/HLA-A11 cells were labeled with 100 μCi of ^51Cr (PerkinElmer, Waltham, Mass., USA) for 1.5 hrs at 37° C. and washed afterwards three times with cold RPMI. The cultured splenocytes, used as effector cells, were mixed with 5×10^3 the ^51Cr-labeled T2/HLA-A11 cells at various ratios in triplicate wells in a U-bottom 96-well plate (Nunc, Rochester, N.Y., USA). After 4-5 hrs incubation, supernatants from each well were collected and the radioactivity contained therein was measured using a γ-counter (PARKARD, Ramsey, Mich., USA). The specific lysis rate was determined following the formula: Specific lysis rate (%)=(Samplecpm−Spontaneous releasecpm)/(Maximum releasecpm−Spontaneous releasecpm)%.

[2] = tested on: splenocytes from HLA-A11/K^b transgenic mice; test: IFN-γ ELISPOT of peptide-stimulated splenocytes from DNA plasmid-immunized mice; type: cell-based, mouse; conditions: splenocytes of mice immunized i.m. with plasmid pE3/19K/HPV18E6E7, stimulated with the peptide; FIG. 7A
Method: (§2) A 96-well plate, having nitrocellulose membrane inserted in each well, was coated with […] anti-IFN-γ antibody (clone MAB1-D1K, 10 μg/ml in 1×PBS, from Mabtech, Macka, Sweden) and was incubated at 4° C. for 24 hours. The plate was washed four times with PBS, and then incubated with […] per well RPMI medium containing 10% fetal bovine serum (FBS) for 1-3 hours. Next, splenocytes were suspended in RPMI containing 10% FBS and 1×10^5 or 5×10^5 splennocytes (200 μl) were added to each well with or without A11VVY. The ELISPOT assay was performed in triplicate wells for each experimental condition. The plate was incubated in an incubator supplied with 5% CO2 at 37° C. for 2 hours. After being washed for 2-3 times, the plate was incubated with avidin-peroxidase complex reagent for one hour at room temperature and then washed three times with 0.05% (w/v) Tween 20 in PBS and three times with PBS. 100 μl aminoethylcarbazole staining solution were then added to each well to develop stained spots. After 4-6 minutes, the plate was washed with running tap water to stop the reaction of developing the spots, which were counted by a computational image analysis.
Plasmid pE3/19K/HPV18E6E7 was constructed following the conventional recombinant technology. This plasmid contains the E3/19K leader sequence and a nucleotide sequence encoding a fusion protein composed of the H-2K^b-restricted CTL epitope SII (derived from ovalbumin) and HPV18E6E7 polypeptide, which includes epitopes VVY, SIP, and ATL.
(§3) Seven to ten days after the second immunization, the mice were sacrificed and their splenocytes collected.
The splenocytes werestimulated with peptide VVY, SII, SIP, ATL, or a control peptide and the levels of IFN-γ secreted thereby were determined with the Enzyme-linked immunospot (ELISPOT) assay described in Example 1 above.

[3] = tested on: HLA A24 heavy chain and β2-microglobulin; test: MHC-peptide complex formation assay (ELISA), HLA A24; type: binding
Method: The HLA A24 heavy chain and β2-microglobulin were expressed and purified following the method described above. These proteins were incubated with synthetic peptides containing potential CTL-epitopes identified by the computational programs mentioned in Example 1. The formation of HLA A24-β2-peptide complexes was determined by the ELISA assay also described in Example 1 above.

[4] = tested on: T cells of HLA-A24 transgenic mice; test: IFN-γ secretion of splenocytes from peptide-immunized HLA-A24 transgenic mice; type: in vivo, mouse; conditions: HLA-A24 transgenic mice immunized with peptide; FIG. 5B
Method: FIG. 5B is a diagram showing IFN-γ secretion of splenocytes obtained from HLA-A24 transgenic mice immunized with peptide […] (A24 CYE, SEQ ID NO:5) or a control peptide.
as §2

[5] = tested on: ^51Cr-labeled T2/HLA-A11 cells; test: Chromium-release assay, peptide-specific CTL effects after DNA plasmid immunization; type: cell-based, mouse; conditions: mice immunized with plasmid pE3/19K/HPV18E6E7; FIG. 7B
Method: as §1, §3
Next, peptide-specific CTL effects were examined by the chromium-release assay described in Example 4 above.

[6] = tested on: CD8^+ T cells of C57BL/6-HLA-A11 transgenic mice; test: HLA-A11-peptide tetramer staining of CD8+ T cells from peptide-immunized mice; type: in vivo, mouse; conditions: HLA-A11 transgenic mice immunized s.c. twice; splenocytes cultured 5 days with peptide and rIL-2; FIG. 6A
Method: C57BL/6-HLA-A11 transgenic mice were immunized s.c. twice with peptide VVY (SEQ ID NO:1) or control peptide SSC (SEQ ID NO:12) together with a T helper cell epitope […] (SEQ ID NO:17), and incomplete adjuvant ISA-51. Seven days after the second immunization, splenocytes were harvested from the immunized mice, cultivated in vitro in the presence of peptide VVY or SSC (10 μg/ml) and rIL-2 (10 U/ml) for five days. The cells were then double stained with HLA-A11-peptide tetramer VVY-tet-PE or SCC-tet-PE and a FITC-conjugated anti-CD8 antibody to detect CD8^+ T cells that bind to either VVY or SSC.
The tetramers were prepared as follows. Purified HLA-A11 heavy chains and β2-microglobulins were refolded in the presence of VVY or SSC in a refolding buffer containing 100 mM Tris-HCl (pH 8), 400 mM L-arginine, 2 mM EDTA, 5 mM reduced glutathione, 0.5 mM oxidized glutathione for 48 hrs at 4° C. […]
The tetramers thus prepared were incubated with the peptide-challenged T cells in a FACS staining buffer for 20 min at room temperature and a FITC conjugated anti-CD8 antibody was then added to the incubation system and kept on ice for 20 min. The stained cells were analyzed by flow cytometry (FACScalibur BD Bioscience, Calif., USA) in the presence of 1 μg/ml of propidium iodide (Sigma, Mo., USA) to exclude dead cells.

[7] = tested on: splenocytes from C57BL/6-HLA-A11 transgenic mouse; test: IFN-γ ELISPOT of splenocytes from peptide-immunized HLA-A11 transgenic mouse; type: in vivo; conditions: HLA-A11 transgenic mouse immunized s.c. with peptide, ISA-51 and T helper epitope; FIG. 5A
Method: C57BL/6-HLA-A11 transgenic mouse, derived from the Animal Technology Institute in Taiwan, was used in this study. 50 μg synthetic peptides having the amino acid sequence of […] (A11VVY; SEQ ID NO:1) were formulated with incomplete adjuvant ISA-51 in the presence of a peptide […] (SEQ ID NO:17), which contains a T helper cell epitope derived from hepatitis B virus. The composition thus formed was injected subcutaneously into the HLA-A11 transgenic mouse two times every two weeks. Seven days after the final injection, splenotyes from the immunized mouse were isolated and cultured in a medium containing A11VVY. The level of IFN-γ secreted to the medium was determined by Enzyme-linked immunospot (ELISPOT) as described below.
A 96-well plate, having nitrocellulose membrane inserted in each well, was coated with […] anti-IFN-γ antibody (clone MAB1-D1K, 10 μg/ml in 1×PBS, from Mabtech, Macka, Sweden) and was incubated at 4° C. for 24 hours. The plate was washed four times with PBS, and then incubated with […] per well RPMI medium containing 10% fetal bovine serum (FBS) for 1-3 hours. […] After 4-6 minutes, the plate was washed with running tap water to stop the reaction of developing the spots, which were counted by a computational image analysis.

[8] = molecular target: HLA A11 heavy chain (His-Tag fusion) with β2-microglobulin (human); test: MHC-peptide complex formation assay, ELISA; relative to positive and negative control O.D.

ATLQDIVLH (listed as Human papillomavirus) [peptide derived from HPV 18]
CTL effects (specific lysis) [1]: not | induction of IFN-γ secretion [2]: not

CYEQLGDSS (listed as Human papillomavirus) [24-32 of HPV 52 E7]
HLA A24 restriction (HLA A24-β2-peptide complex formation) [3]: HLA A24 restricted epitopes | IFN-γ secretion by peptide-specific T cells [4]: incuded A24CYE-specific T cells to secrete IFN-γ

RAHYNIVTF (listed as Human papillomavirus) [control peptide]
induction of IFN-γ secretion [2]: not | peptide-specific CTL effects [5]: not

SIINFEKL (listed as Mus musculus)
induction of IFN-γ secretion [2]: induced IFN-γ secretion | peptide-specific CTL effects [5]: not

SIPHAACHK (listed as Human papillomavirus) [peptide derived from HPV 18]
CTL effects (specific lysis) [1]: not | induction of IFN-γ secretion [2]: not

SSCSSCPLSK (listed as Human herpesvirus) [A11-SCC, positive control A11-restricted peptide derived from EBV LMP2 protein]
induction of VVY-specific CD8^+ T cells (tetramer staining) [6]: did not show this effect

VDLLCHEQL (listed as Human papillomavirus) [23-31 of HPV 18 E7]
HLA A24 restriction (HLA A24-β2-peptide complex formation) [3]: HLA A24 restricted epitopes

VVYRDSIPH (listed as Human papillomavirus) [54-62 of HPV 18 E6]
IFN-γ secreting splenocytes [7]: large amount | induction of VVY-specific CD8^+ T cells (tetramer staining) [6]: induced VVY-specific CD8^+ T cells | CTL effects (specific lysis) [1]: induced CTL effects | induction of IFN-γ secretion [2]: induced IFN-γ secretion | peptide-specific CTL effects [5]: induced CTL effects

WLSLLVPFV [A2-restricted peptide, used as control peptide for immunization]
IFN-γ secreting splenocytes [7]: little

… (54-62 of HPV 18 E6) (peptide)
relative binding % [8]: 30%

… (64-72 of HPV 52 E6) (peptide)
relative binding % [8]: 30%

… (94-102 of HPV 58 E6) (peptide)
relative binding % [8]: 30%
